Data as given in ChEMBL document CHEMBL1201862, “PubChem BioAssay data set” (2004).
The source made the active and inactive calls. Cut-off read from the data, not from the text of the source, for most assays here: actives have a measured EC50 and inactives only a lower limit.

Columns and labels:
[1] = Luminescence Cell-Based Dose Confirmation HTS to Identify Activators of 5'UTR Stem-Loop Driven Alpha-Synuclein mRNA Translation in H4 Neuroglioblastoma Cells. [Related pubchem assays: 1829 (Project Summary), 1814 (Primary HTS)]; assay type: functional
[2] = Luminescence Cell-Based Dose Response HTS to Identify Activators of Luciferase Translation or Activity in H4 […] Cells. [Related pubchem assays: 1829 (Project Summary), 1814 (Primary HTS)]; assay type: functional
H4 = test: Luminescence Cell-Based Dose Response HTS to Identify Activators of 5'UTR Stem-Loop Driven Prion Protein mRNA Translation in H4 Neuroglioblastoma Cells. [Related pubchem assays: 1829 (Project Summary), 1814 (Primary HTS)]; assay type: functional; details: Homo sapiens
[3] = target: T1, High affinity choline transporter 1 (Homo sapiens, UniProt Q9GZV3); test: CHT inhibitors, dose response, cell-based, 5-point CRC, membrane potential dye (AID 504840); assay type: functional
T1 sequence (Q9GZV3 whole entry): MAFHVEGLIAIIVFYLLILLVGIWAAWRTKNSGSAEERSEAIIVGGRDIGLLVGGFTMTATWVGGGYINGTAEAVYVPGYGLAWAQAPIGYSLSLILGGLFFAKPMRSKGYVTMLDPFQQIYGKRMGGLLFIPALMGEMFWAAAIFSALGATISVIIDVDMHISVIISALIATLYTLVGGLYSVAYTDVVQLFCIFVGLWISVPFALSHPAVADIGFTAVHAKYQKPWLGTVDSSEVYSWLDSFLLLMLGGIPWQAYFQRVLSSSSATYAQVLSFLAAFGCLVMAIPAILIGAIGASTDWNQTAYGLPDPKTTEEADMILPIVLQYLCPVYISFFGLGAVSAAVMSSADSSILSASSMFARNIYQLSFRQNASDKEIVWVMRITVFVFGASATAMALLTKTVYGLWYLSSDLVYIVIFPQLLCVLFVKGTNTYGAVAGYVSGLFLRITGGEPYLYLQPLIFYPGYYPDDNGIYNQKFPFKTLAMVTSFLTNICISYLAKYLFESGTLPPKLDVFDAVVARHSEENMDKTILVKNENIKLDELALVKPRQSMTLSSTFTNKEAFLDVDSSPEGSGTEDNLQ

Fatty acid synthase [4] = target: T2, Fatty acid synthase (Homo sapiens, UniProt P49327); test: FAS thioesterase domain inhibitors, dose response, biochemical, endpoint fluorescence intensity, uHTS hits (AID 624327); assay type: functional;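 note: fluorescence from hydrolysis of an O-methyl fluorescein acyl ester substrate by the enzyme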
T2 sequence (P49327 whole entry, the tested form may be a part): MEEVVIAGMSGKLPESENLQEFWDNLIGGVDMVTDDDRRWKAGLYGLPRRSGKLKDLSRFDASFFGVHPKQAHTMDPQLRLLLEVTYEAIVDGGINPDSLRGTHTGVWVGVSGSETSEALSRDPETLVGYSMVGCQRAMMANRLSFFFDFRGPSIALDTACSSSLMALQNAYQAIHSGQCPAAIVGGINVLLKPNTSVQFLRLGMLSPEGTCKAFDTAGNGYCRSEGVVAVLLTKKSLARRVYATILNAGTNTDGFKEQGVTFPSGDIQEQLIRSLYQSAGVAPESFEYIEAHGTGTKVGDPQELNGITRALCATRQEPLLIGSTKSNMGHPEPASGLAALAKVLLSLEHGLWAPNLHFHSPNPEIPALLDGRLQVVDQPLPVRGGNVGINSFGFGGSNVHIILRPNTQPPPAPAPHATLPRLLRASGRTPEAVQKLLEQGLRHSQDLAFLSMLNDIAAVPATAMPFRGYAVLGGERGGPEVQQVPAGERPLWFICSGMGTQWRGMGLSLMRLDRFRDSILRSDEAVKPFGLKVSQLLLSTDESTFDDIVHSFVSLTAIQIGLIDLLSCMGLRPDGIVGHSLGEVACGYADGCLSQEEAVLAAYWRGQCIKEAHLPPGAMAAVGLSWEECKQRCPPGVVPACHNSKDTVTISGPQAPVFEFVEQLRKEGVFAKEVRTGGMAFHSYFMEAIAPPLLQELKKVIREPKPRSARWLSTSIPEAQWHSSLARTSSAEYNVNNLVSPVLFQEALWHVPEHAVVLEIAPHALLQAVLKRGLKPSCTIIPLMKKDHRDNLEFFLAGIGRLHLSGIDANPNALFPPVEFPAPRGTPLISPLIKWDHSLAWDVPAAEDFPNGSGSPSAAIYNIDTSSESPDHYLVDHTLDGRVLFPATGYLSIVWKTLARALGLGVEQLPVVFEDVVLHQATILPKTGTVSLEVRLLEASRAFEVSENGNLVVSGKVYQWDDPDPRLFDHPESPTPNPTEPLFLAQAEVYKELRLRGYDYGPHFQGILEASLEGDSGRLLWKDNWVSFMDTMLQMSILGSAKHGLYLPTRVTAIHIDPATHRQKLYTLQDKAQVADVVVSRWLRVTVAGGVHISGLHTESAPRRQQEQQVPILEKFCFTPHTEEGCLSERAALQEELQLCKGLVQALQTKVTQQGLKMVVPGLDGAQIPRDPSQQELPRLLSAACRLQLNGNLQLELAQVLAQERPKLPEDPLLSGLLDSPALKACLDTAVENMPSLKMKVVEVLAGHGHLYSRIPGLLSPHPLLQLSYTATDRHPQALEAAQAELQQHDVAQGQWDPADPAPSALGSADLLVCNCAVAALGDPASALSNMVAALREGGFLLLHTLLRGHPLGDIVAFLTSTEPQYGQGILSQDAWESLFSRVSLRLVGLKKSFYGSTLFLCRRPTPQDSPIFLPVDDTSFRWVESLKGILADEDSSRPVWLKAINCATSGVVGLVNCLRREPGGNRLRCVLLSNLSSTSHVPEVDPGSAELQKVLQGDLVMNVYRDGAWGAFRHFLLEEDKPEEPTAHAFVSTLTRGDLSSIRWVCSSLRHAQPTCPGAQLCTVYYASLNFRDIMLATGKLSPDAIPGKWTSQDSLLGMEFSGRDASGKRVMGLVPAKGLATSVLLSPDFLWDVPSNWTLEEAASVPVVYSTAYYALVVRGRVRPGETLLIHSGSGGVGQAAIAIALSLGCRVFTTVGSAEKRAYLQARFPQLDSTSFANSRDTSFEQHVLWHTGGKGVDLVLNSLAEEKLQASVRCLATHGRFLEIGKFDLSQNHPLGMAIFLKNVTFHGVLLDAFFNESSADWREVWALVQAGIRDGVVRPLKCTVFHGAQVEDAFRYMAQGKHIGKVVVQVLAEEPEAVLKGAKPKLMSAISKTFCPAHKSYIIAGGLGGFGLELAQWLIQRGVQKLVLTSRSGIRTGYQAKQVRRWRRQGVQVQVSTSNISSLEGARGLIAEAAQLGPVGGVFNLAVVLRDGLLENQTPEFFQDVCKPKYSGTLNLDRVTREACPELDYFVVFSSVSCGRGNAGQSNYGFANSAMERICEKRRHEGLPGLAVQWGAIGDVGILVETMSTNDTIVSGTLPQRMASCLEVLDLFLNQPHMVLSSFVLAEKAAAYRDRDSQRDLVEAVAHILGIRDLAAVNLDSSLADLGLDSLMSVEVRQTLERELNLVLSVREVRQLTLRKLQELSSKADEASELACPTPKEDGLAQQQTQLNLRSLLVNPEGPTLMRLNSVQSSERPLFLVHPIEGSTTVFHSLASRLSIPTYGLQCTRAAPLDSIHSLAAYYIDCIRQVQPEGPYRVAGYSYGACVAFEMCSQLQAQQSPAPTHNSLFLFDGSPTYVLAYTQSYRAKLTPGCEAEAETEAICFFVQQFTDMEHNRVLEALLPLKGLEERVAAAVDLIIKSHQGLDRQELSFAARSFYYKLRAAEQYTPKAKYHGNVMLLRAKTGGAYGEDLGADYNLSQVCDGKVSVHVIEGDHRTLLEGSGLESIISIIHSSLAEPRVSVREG

Fatty acid synthase [5] = target: T2, Fatty acid synthase; test: FAS thioesterase domain inhibitors, dose response, biochemical, kinetic fluorescence intensity (AID 624326); assay type: functional;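 note: rate of fluorescence rise from hydrolysis of a fluorogenic O-methyl fluorescein ester substrate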
cells [6] = assay type: functional
[7] = THP-1 cell cytotoxicity, dose response, cytotoxicity control for non-replicating M. tuberculosis project (AID 489025); assay type: functional
[8] = target: T3, Carboxy-terminal domain RNA polymerase II polypeptide A small phosphatase 1 (Homo sapiens, UniProt Q9GZU7); test: inhibitors of CTDSP1, concentration-response testing, biochemical assay, absorbance-based, actives from ultra-high-throughput screening (AID 540297); assay type: functional
T3 sequence (Q9GZU7 whole entry): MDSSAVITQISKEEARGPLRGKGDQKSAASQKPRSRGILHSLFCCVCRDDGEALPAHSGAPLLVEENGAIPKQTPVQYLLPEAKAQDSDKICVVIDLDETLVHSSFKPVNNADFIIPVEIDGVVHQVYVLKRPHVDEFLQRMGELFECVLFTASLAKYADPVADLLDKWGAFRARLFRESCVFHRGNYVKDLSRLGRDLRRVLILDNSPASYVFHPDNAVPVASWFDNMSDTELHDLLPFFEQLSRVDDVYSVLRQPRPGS

[9] = NIH-3T3 fibroblast cytotoxicity, dose response, cytotoxicity control, cell-based, fluorescence, Alamar Blue, secondary assay (AID 2327); assay type: functional;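 note: NIH-3T3 mouse fibroblasts cultured with fluconazole at 8 µg/mL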
[10] = C. albicans growth with fluconazole, confirmation, fluorescence, retest (AID 2467); assay type: functional, cell-based
cells [11] = assay type: functional, cell-based
cells [12] = assay type: functional, cell-based; remark: listed apart in the source

For `CC1CCN(Cc2nc(-c3ccccc3)no2)CC1`, the EC50 [1] was 0.272 µM (active), the EC50 [2] was < 0.1 µM (active) and the EC50 (H4) was 25.8 µM (active).

For `CSCC[C@@H](C(=O)NCCCCCCCCCCC(=O)N1CCN(C(=O)OC(C)(C)C)CC1)n1cc(CCO)nn1`, the IC50 [3] was 14.5 µM (active).

In the case of `NC1=C(c2nc3ccccc3s2)C(=O)CN1Cc1ccccc1`, the EC50 [1] is reported as > 120 µM (not active), the EC50 [2] is reported as 92 µM (active) and the EC50 (H4) is reported as > 120 µM (not active).

For `O=C(CSc1ccc([N+](=O)[O-])cc1)NCC1CCCCC1`, the IC50 (Fatty acid synthase [4]) was 8.2 µM (active) and the IC50 (Fatty acid synthase [5]) was 11.9 µM (active).

In the case of `Clc1ccc(OCCOCCN2CCc3ccccc3C2)c(Cl)c1`, the IC50 (cells [6]) is reported as 18.6 µM (active) and the CC50 [7] is reported as > 40 µM (active).

For `O=C(Nc1ccc(C(=O)O)cc1)/C(=C\c1ccc([N+](=O)[O-])cc1)NC(=O)c1ccc(Br)cc1`, the IC50 (Fatty acid synthase [4]) was 2.05 µM (active) and the IC50 (Fatty acid synthase [5]) was 1.21 µM (active).

With `COc1ccc(-c2cc3c(=O)n(CC(=O)NCc4ccc(F)cc4)ncn3n2)cc1` the EC50 [1] was 1.33 µM (active) and the EC50 [2] was 0.124 µM (active).

For `CCS(=O)(=O)C1=NN2C(=N)/C(=C\c3ccc(OS(=O)(=O)c4ccccc4)cc3)C(=O)N=C2S1`, the IC50 [3] was 6.95 µM (active).

For `Nc1c(C(=O)OC2CCCCC2)c2nc3ccccc3nc2n1CC1CCCO1` (stereo unspecified), the IC50 [3] was 13.2 µM (active).

In the case of `CC(/C=C1\SC(=S)N(NC(=O)c2ccncc2)C1=O)=C\c1ccccc1`, the IC50 [3] is reported as 14.5 µM (active).

For `O=C(Nc1ccc(NC(=O)C2CC2)nc1)c1cccc(F)c1`, the EC50 [1] was 13.1 µM (active), the EC50 [2] was 11.2 µM (active) and the EC50 (H4) was > 120 µM (not active).

In the case of `O=C(O)CCCCCN1C(=O)/C(=C/c2nc3ccccc3[nH]2)SC1=S`, the IC50 [8] is reported as 6.09 µM (active), the EC50 [9] is reported as > 150 µM (inactive) and the EC50 [10] is reported as 5.71 µM (active).

In the case of `O=C(CSc1nnc(COc2ccccc2)n1Cc1ccco1)NCc1ccco1`, the IC50 [8] is reported as 7.21 µM (active).

For `COc1ccc(NC(=O)CCS(=O)(=O)c2ccc3c(c2)CCN3C(C)=O)cc1`, the EC50 (cells [11]) was > 350 µM (not active) and the EC50 (cells [12]) was > 350 µM (not active).

In the case of `CC(C)c1ccc(N(C(=O)c2csnn2)C(C(=O)NC(C)(C)C)c2ccncc2)cc1` (stereo unspecified), the EC50 [1] is reported as 5.54 µM (active), the EC50 [2] is reported as > 120 µM (not active) and the EC50 (H4) is reported as 22.6 µM (inconclusive).

For `O=C(Cn1cc([N+](=O)[O-])ccc1=O)NCC1COc2ccccc2O1` (stereo unspecified), the IC50 (Fatty acid synthase [4]) was 10.1 µM (active) and the IC50 (Fatty acid synthase [5]) was 11.5 µM (active).

For `CCC1Oc2ccccc2N(CC(=O)Nc2ccccc2OC)C1=O` (stereo unspecified), the EC50 (cells [11]) was > 350 µM (not active) and the EC50 (cells [12]) was > 350 µM (not active).

With `Cc1ccc(NC(=O)CCNC(=O)c2ccc([N+](=O)[O-])cc2)cc1C` the IC50 (Fatty acid synthase [4]) was 9.54 µM (active) and the IC50 (Fatty acid synthase [5]) was 9.29 µM (active).
